Results as given in paper PMC3109356 (Bioorganic & medicinal chemistry letters, 2011).

Key:
Format in all cases: binding
MBP-MshC = MBP-MshC (Mycobacterium tuberculosis, UniProt P9WJM9); experiment: NOESY / transferred NOESY in the presence of MBP-MshC; conditions: free in solution vs in the presence of MBP-MshC
[1] = biological target: M. tuberculosis MshC (MBP-MshC) (Mycobacterium tuberculosis, UniProt P9WJM9); experiment: 1H STD NMR in the presence of MBP-MshC; conditions: for STD relative enhancement for H-2″ / STD relative enhancement for H-3″: normalized to adenine H-2, 20 μM MBP-MshC, 900 μM ligand
M. tuberculosis MshC (MBP-MshC), sequence (P9WJM9 whole entry): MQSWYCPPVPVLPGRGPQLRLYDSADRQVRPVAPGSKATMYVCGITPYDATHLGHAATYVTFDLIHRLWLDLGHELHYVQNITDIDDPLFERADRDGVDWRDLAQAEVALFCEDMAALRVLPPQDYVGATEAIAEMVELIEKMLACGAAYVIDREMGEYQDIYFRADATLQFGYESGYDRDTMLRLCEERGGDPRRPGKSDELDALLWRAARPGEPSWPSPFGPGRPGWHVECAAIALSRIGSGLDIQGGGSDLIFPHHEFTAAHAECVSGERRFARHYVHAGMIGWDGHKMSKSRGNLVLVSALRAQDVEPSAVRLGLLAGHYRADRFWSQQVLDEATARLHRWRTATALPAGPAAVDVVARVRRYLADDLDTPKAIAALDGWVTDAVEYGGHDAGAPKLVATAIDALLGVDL

soluble MBP tag = soluble MBP tag (Escherichia coli, UniProt P0AEX9); experiment: 1H STD NMR with soluble MBP tag as control
MshC = MshC (Mycobacterium tuberculosis, UniProt P9WJM9); experiment: isothermal titration calorimetry; conditions: ITC
MshC, sequence (P9WJM9 whole entry): as above

MBP-MshC, sequence (P9WJM9 whole entry): as above

Nc1ncnc2c1ncn2[C@@H]1O[C@H](COS(=O)(=O)NC(=O)[C@@H](N)CS)[C@@H](O)[C@H]1O [Compound 1, 5′-O-[N-(L-cysteinyl)sulfamoyl] adenosine]
NOESY/trNOESY cross peaks (binding) (MBP-MshC): cross peaks changed in sign from positive to negative
STD relative enhancement for H-2″ [1]: 21%
STD relative enhancement for H-3″ [1]: 10%
binding to the soluble MBP tag (soluble MBP tag): No binding was observed

Nc1ncnc2c1ncn2[C@@H]1O[C@H](COS(=O)(=O)NC(=O)[C@@H](N)CC(=O)O)[C@@H](O)[C@H]1O [Compound 3]
heats of binding (MshC): No heats of binding were detected
NOESY/trNOESY cross peaks (binding) (MBP-MshC): did not contain any cross peaks
signal-to-noise (S/N) ratio in the STD difference spectra ([1]; in the presence of MshC, reference spectra S/N 170): 20
STD relative enhancement for H-2″ [1]: 12%
STD relative enhancement for H-3″ [1]: no effect could be observed
binding to the soluble MBP tag (soluble MBP tag): No binding was observed
